Experimental data: patent US9458187B2, “Methods for treatment of inflammatory conditions using S-[4-(3-fleuro-3-methylbutyryloxy)but-2-ynyl]6α, 9α-difluoro-17α-(furan-2-yl) carbonyloxy-11β-hydroxy-16α-methyl-3-oxoandrosta-1,4-diene-17β-carbothioate” (Sun Pharma Advanced Research Company Limited, priority 2013, dated 2016)

Legend:
[1] = molecular target: T1, Human Glucocorticoid receptor (Homo sapiens, UniProt P04150); assay: Human glucocorticoid receptor binding (in vitro), [3H]dexamethasone radioligand
T1 construct: expressed in transfected cells; host or cells: human HeLa cells
T1 sequence (P04150 1-777): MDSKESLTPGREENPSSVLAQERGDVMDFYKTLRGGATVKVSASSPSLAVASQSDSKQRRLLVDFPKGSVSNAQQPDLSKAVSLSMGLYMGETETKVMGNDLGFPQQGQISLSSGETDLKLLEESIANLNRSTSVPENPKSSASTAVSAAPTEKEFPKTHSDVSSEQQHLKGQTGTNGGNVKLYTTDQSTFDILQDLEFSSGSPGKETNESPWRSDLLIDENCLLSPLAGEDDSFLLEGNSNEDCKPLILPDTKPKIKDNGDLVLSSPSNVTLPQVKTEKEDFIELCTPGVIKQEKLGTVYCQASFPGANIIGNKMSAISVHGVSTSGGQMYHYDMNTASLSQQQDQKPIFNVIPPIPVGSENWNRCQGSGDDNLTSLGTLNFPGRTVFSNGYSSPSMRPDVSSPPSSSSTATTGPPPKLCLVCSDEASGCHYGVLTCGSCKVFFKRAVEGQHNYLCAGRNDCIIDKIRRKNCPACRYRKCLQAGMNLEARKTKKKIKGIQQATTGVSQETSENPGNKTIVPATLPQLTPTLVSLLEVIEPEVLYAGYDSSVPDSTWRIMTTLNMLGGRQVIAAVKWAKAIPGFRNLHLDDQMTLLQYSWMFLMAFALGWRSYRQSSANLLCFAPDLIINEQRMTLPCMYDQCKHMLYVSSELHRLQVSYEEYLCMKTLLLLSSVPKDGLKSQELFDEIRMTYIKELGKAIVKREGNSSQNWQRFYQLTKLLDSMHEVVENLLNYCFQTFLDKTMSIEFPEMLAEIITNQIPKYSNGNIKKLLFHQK
Protocol: The activity of test compounds on glucocorticoid receptor was assessed using radioligand binding assays.
The % inhibition was evaluated using a single concentration of test compound and the corresponding radiolabeled ligand. Results are presented as the percent inhibition of specific binding. The values are average of duplicate determinations for each concentration.

Aldosterone receptor = molecular target: T2, Aldosterone receptor (Rattus norvegicus, UniProt P22199); assay: Steroidal receptor binding screen, aldosterone
T2 construct: aldosterone (Wistar rat kidney); from tissue; host or cells: Wistar rat kidney
T2 sequence (P22199 1-981): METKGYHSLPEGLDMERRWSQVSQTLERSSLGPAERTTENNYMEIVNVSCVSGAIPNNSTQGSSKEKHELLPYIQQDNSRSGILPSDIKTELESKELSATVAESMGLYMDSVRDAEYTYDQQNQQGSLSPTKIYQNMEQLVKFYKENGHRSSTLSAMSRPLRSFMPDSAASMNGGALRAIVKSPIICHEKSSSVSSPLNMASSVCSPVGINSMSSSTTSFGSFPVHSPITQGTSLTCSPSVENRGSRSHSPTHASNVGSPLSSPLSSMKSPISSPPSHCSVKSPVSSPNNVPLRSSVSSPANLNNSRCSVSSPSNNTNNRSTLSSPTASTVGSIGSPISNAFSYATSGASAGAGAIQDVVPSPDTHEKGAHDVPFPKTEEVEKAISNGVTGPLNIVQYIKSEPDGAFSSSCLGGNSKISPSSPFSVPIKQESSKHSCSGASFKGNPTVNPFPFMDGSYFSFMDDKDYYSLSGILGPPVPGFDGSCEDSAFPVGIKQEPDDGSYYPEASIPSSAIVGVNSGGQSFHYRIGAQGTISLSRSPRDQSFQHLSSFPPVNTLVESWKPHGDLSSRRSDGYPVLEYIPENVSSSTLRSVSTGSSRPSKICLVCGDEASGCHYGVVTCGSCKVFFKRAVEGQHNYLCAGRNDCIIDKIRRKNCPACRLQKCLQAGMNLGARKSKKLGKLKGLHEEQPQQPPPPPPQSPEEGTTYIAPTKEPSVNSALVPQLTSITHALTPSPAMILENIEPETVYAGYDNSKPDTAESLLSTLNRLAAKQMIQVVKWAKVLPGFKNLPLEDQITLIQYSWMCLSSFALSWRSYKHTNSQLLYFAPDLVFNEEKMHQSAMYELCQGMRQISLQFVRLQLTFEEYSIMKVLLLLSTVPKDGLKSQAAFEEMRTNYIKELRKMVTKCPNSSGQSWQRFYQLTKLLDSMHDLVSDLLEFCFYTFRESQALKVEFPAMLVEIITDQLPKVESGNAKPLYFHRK
Excerpt: For determination of binding to other related steroidal receptors by compound of the present invention cloned receptors from cells indicated in the parentheses were used: estrogen Erα/Erβ and progesterone (human recombinant insect Sf9), testosterone (human LnCAP) and aldosterone (Wistar rat kidney).

[2] = tested on: Seasonal Allergic Rhinitis; assay: Efficacy and safety by intranasal administration, Seasonal Allergic Rhinitis Environmental Exposure Chamber study; type: in vivo, human; conditions: patients, intranasal 100, 200 or 400 μg BID, 2 weeks, versus placebo
Protocol: The present study was conducted to determine the efficacy and safety of the compound of the present invention via intranasal route in Seasonal Allergic Rhinitis model. This was a single-centered, randomized, double-blind, placebo-controlled parallel group study.
OBJECTIVE: The objective of the study was to assess the efficacy and safety of the compound of the present invention via intranasal route compared to placebo in alleviating the signs and symptoms of Seasonal Allergic Rhinitis in Environmental Exposure Chamber Model (EEC) after 2 weeks of treatment.
METHODS: In this study, male and female patients aged 18-65 years with history of seasonal allergic rhinitis and positive skin prick test to Dactylis glomerate within 12 months prior to screening and with TNSS score of >6 at least once during the 2 hour-screening EEC were included. Total 159 patients were included in the study and total 154 patients were considered for efficacy analysis. […]
Primary efficacy endpoint was change in TNSS (Total Nasal Symptom Score) in a 4-hour environmental challenge with Dactylis glomerate pollen in an EEC from baseline to Day 15/16. The TNSS was calculated as summation of 4 point severity scale (0=None, 1=Mild, 2=Moderate and 3=Severe) for each symptom (Nasal congestion, Rhinorrhea, Nasal itching and Sneezing). […]

Compound: C[C@@H]1CC2C3C[C@H](F)C4=CC(=O)C=C[C@]4(C)[C@@]3(F)[C@@H](O)C[C@]2(C)[C@@]1(OC(=O)c1ccco1)C(=O)SCC#CCOC(=O)CC(C)(C)F (stereo partly drawn) [Formula I, S-[4-(3-Fluoro-3-methylbutyryloxy)but-2-ynyl]6α,9α-difluoro-17α-(furan-2-yl)carbonyloxy-11β-hydroxy-16α-methyl-3-oxoandrosta-1,4-diene-17β-carbothioate]
- IC50 [1]: 2.3 nM
- Ki [1]: 1.24 nM
- potency and selectivity towards human glucocorticoid receptor ([1]; compared with aldosterone, estrogen, progesterone and testosterone receptors): good potency and selectivity
- IC50 (Aldosterone receptor): 328 nM
- Ki (Aldosterone receptor): 256 nM
- primary and secondary efficacy endpoints (change in TNSS, TNSS subscales, nasal secretion) [2]: statistically superior to the placebo
- safety profile (treatment-emergent adverse events) [2]: no significant difference in the safety profile
